Experimental data: ChEMBL document CHEMBL2203140, “Syntheses and structure-activity relationship studies of N-substituted-β-D-glucosaminides as selective cytotoxic agents” (Bioorg Med Chem Lett, 2012)
pIC50: −log10 of the molar value.

Legend:
Type in all cases: functional, cell-based
HeLa = assay: Cytotoxicity against human HeLa cells after 48 hrs by MTT assay
A549 = assay: Cytotoxicity against human A549 cells after 48 hrs by MTT assay; settings: A549, 48 h
HT-1080 = assay: Cytotoxicity against human HT1080 cells after 48 hrs by MTT assay; settings: HT-1080, 48 h
MCF7 = assay: Cytotoxicity against human MCF7 cells after 48 hrs by MTT assay; settings: MCF7, 48 h
HepG2 = assay: Cytotoxicity against human HepG2 cells after 48 hrs by MTT assay; settings: HepG2, 48 h
HCT-116 = assay: Cytotoxicity against human HCT116 cells after 48 hrs by MTT assay; settings: HCT-116, 48 h

Compound	pIC50 (HeLa)	pIC50 (A549)	pIC50 (HT-1080)	pIC50 (MCF7)	pIC50 (HepG2)	pIC50 (HCT-116)
C[C@@H]1CC[C@@]2(OC1)O[C@H]1C[C@H]3[C@@H]4CC=C5C[C@@H](O[C@@H]6O[C@H](CO)[C@@H](O)[C@H](O)[C@H]6NC(=O)NN6CCCCC6)CC[C@]5(C)[C@H]4CC[C@]3(C)[C@H]1[C@@H]2C	< 4.30	< 4.30	4.45	< 4.30	< 4.30	< 4.30
C[C@@H]1CC[C@@]2(OC1)O[C@H]1C[C@H]3[C@@H]4CC=C5C[C@@H](O[C@@H]6O[C@H](CO)[C@@H](O)[C@H](O)[C@H]6NC(=O)/C=C/c6ccccc6)CC[C@]5(C)[C@H]4CC[C@]3(C)[C@H]1[C@@H]2C	4.89	4.38	4.53	4.80	4.44	4.41
CCCCCCCNC(=O)N[C@H]1[C@H](O[C@H]2CC[C@@]3(C)C(=CC[C@H]4[C@@H]5C[C@@H]6O[C@]7(CC[C@@H](C)CO7)[C@@H](C)[C@@H]6[C@@]5(C)CC[C@@H]43)C2)O[C@H](CO)[C@@H](O)[C@@H]1O	< 4.30	< 4.30	4.37	< 4.30	< 4.30	< 4.30
C[C@@H]1CC[C@@]2(OC1)O[C@H]1C[C@H]3[C@@H]4CC=C5C[C@@H](O[C@@H]6O[C@H](CO)[C@@H](O)[C@H](O)[C@H]6NC(=O)NCc6ccccc6)CC[C@]5(C)[C@H]4CC[C@]3(C)[C@H]1[C@@H]2C	4.57	4.55	< 4.30	4.62	< 4.30	< 4.30
COc1cccc(/C=C/C(=O)N[C@H]2[C@H](O[C@H]3CC[C@@]4(C)C(=CC[C@H]5[C@@H]6C[C@@H]7O[C@]8(CC[C@@H](C)CO8)[C@@H](C)[C@@H]7[C@@]6(C)CC[C@@H]54)C3)O[C@H](CO)[C@@H](O)[C@@H]2O)c1	4.57	4.57	4.58	4.62	< 4.30	< 4.30
C[C@@H]1CC[C@@]2(OC1)O[C@H]1C[C@H]3[C@@H]4CC=C5C[C@@H](O[C@@H]6O[C@H](CO)[C@@H](O)[C@H](O)[C@H]6NC(=O)/C=C/c6cccc(Cl)c6)CC[C@]5(C)[C@H]4CC[C@]3(C)[C@H]1[C@@H]2C	< 4.30	< 4.30	< 4.30	< 4.30	< 4.30	< 4.30
C[C@@H]1CC[C@@]2(OC1)O[C@H]1C[C@H]3[C@@H]4CC=C5C[C@@H](O[C@@H]6O[C@H](CO)[C@@H](O)[C@H](O)[C@H]6NC(=O)/C=C/c6ccccc6[N+](=O)[O-])CC[C@]5(C)[C@H]4CC[C@]3(C)[C@H]1[C@@H]2C	< 4.30	< 4.30	4.44	< 4.30	< 4.30	< 4.30
C[C@@H]1CC[C@@]2(OC1)O[C@H]1C[C@H]3[C@@H]4CC=C5C[C@@H](O[C@@H]6O[C@H](CO)[C@@H](O)[C@H](O)[C@H]6NC(=O)/C=C/c6ccc(F)cc6)CC[C@]5(C)[C@H]4CC[C@]3(C)[C@H]1[C@@H]2C	4.57	4.47	4.46	4.67	4.40	4.46
